Experimental data reported in article PMC10755728, “Inhibitors of the Elastase LasB for the Treatment of Pseudomonas aeruginosa Lung Infections” (ACS Central Science, 2023).
Like-named read-outs stand apart in the source and are kept apart here.

Assays:
MMP-2 = target: T1, MMP-2 (Homo sapiens, UniProt P08253); assay: MMP-2 inhibition assay; format: biochemical; conditions: 100 μM; read-out: % inhibition MMP-2
T1 construct: purchased AnaSpec (Fremont, CA, USA)
T1 sequence (P08253 110-660): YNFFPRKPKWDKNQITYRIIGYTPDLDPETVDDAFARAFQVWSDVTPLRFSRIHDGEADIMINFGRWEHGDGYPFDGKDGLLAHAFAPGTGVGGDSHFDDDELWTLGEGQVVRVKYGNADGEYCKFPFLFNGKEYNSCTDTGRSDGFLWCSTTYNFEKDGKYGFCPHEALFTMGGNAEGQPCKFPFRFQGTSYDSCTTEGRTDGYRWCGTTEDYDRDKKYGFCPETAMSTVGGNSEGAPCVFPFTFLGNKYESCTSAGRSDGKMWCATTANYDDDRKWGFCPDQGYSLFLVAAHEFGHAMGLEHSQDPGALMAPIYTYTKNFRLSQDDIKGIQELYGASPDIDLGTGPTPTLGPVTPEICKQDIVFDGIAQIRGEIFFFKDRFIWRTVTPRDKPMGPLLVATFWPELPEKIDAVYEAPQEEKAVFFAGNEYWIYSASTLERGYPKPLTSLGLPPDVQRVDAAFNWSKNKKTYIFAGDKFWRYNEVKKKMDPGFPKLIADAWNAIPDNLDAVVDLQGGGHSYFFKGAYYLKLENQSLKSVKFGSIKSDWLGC

COX-1 = target: T2, COX-1 (Ovis aries, UniProt P05979); assay: Fluorometric COX-1 inhibitor assay; format: biochemical, human
T2 construct: purchased Abcam (Cambridge, UK)
T2 sequence (P05979 25-600): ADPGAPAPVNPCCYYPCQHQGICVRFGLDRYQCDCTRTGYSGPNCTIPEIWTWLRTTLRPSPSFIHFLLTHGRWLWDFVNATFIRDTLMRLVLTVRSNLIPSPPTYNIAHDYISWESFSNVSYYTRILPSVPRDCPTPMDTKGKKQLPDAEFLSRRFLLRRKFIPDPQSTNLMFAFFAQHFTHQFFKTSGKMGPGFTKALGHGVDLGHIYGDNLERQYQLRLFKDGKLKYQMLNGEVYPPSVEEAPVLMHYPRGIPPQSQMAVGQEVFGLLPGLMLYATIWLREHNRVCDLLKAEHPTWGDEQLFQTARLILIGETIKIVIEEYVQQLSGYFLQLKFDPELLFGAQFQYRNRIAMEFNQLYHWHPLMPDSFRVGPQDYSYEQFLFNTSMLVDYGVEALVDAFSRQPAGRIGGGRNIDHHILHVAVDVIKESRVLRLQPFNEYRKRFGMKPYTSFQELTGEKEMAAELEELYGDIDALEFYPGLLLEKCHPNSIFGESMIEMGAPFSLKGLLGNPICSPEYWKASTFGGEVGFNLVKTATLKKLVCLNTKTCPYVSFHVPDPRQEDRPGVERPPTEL

Plasma stability, mouse = format: in vitro ADME; conditions: for half-life at 1 μM: mouse plasma, read-out: Plasma T1/2 Mouse; for half-life: C57BL6, mouse, pooled plasma, species profiling, read-out: Plasma T1/2 Mouse (C57BL6)
MMP-3 = target: T3, MMP-3 (Homo sapiens, UniProt P08254); assay: MMP-3 inhibition assay; format: biochemical; conditions: 100 μM; read-out: % inhibition MMP-3
T3 construct: purchased AnaSpec (Fremont, CA, USA)
T3 sequence (P08254 100-477): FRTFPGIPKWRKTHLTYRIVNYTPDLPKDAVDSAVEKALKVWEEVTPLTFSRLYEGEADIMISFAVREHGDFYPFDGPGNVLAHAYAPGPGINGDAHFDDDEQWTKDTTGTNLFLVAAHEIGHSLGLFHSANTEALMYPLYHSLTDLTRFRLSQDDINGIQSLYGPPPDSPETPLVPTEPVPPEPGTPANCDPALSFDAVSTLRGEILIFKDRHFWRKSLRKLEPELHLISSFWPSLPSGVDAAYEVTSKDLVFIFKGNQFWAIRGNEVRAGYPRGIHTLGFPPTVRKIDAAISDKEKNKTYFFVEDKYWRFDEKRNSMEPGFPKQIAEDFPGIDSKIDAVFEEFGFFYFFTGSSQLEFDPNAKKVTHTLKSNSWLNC

HepG2 = conditions: human, 48 h, 100 µM
Method: (§1) Culturing of HepG2, A549 and HEK293 cells. The human hepatocellular carcinoma cell line HepG2, the lung adenocarcinoma cell line A549 and Human Embryonic (HEK) 293 cells were cultured in Dulbecco's Modified Eagle Medium (DMEM), containing 10% Fetal Bovine Serum
(§2) (FBS) and 1% penicillin-streptomycin mixture. Cells were maintained according to standard cell
(§3) Cytotoxicity assay. An MTT-based assay was employed to evaluate the viability of HepG2,
(§4) HEK293 and A549 cells after challenge with selected LasB inhibitors and performed as described

HDAC-3 = target: T4, HDAC-3 (Homo sapiens, UniProt O15379); assay: HDAC-3 inhibitor screening kit; format: biochemical
T4 construct: purchased Sigma-Aldrich (Saint Louis, MO)
T4 sequence (O15379 whole entry): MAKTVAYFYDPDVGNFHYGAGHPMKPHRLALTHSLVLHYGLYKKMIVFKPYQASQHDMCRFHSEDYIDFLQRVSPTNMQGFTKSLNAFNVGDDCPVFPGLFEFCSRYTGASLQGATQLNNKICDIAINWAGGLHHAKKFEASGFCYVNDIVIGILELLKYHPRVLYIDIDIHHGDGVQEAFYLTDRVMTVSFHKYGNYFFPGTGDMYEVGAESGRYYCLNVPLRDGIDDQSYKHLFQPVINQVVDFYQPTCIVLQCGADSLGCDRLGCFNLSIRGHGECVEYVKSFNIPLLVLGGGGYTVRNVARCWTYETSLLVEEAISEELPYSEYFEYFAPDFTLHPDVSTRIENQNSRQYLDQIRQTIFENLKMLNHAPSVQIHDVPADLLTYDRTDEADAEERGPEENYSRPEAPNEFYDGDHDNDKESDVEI
T4 sequence (Q9Y618 395-489 partner limits assumed): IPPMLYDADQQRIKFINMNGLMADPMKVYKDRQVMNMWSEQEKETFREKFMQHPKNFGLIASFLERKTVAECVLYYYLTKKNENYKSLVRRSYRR

[1] = Lipophilicity determination (LogD7.4, HPLC-MS); format: physicochemical; conditions: for chromatographic logD: pH 7.4, pH 7.4, chromatographic
Method: Lipophilicity determination. LogD7.4 was analyzed using an HPLC−MS based method.50 The retention time of 12 compounds with known LogD7.4 was determined and plotted toward their LogD7.4. Linear regression was used to determine the LogD7.4 of unknown compounds. Analysis was performed using a Dionex Ultimate 3000 HPLC system coupled to a TSQ Quantum Access MAX (Thermo Fisher, Dreieich, Germany) with the following conditions: EC150/2 NUCLEODUR C18 Pyramid column, 5 μM (Macherey Nagel, Düren, Germany); eluent A: 50 mM NH4OAc pH 7.4, eluent B: acetonitrile, and flow: 0.6 mL/min.

[2] = Metabolic stability in mouse liver S9 fraction; format: in vitro ADME
MMP-1 = target: T5, MMP-1 (Homo sapiens, UniProt P03956); assay: MMP-1 inhibition assay; format: biochemical; conditions: 100 μM; read-out: % inhibition MMP-1
T5 construct: purchased AnaSpec (Fremont, CA, USA)
T5 sequence (P03956 100-469): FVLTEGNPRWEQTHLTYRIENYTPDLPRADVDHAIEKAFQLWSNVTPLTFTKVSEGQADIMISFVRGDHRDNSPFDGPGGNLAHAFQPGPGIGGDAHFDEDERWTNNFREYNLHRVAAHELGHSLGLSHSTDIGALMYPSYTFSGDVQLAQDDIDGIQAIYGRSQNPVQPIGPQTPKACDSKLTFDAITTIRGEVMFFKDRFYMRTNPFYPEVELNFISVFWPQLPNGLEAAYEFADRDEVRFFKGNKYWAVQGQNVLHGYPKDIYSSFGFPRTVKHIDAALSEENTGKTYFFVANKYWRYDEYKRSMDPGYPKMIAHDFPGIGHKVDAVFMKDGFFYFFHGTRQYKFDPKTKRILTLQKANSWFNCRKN

HEK293 = conditions: human, 48 h, 100 µM
Method: as §1, §2, §3, §4

[3] = mouse, in vivo
HDAC-8 = target: T6, HDAC-8 (Homo sapiens, UniProt Q9BY41); assay: HDAC-8 inhibitor screening kit; format: biochemical
T6 construct: purchased Sigma-Aldrich (Saint Louis, MO)
T6 sequence (Q9BY41 1-377): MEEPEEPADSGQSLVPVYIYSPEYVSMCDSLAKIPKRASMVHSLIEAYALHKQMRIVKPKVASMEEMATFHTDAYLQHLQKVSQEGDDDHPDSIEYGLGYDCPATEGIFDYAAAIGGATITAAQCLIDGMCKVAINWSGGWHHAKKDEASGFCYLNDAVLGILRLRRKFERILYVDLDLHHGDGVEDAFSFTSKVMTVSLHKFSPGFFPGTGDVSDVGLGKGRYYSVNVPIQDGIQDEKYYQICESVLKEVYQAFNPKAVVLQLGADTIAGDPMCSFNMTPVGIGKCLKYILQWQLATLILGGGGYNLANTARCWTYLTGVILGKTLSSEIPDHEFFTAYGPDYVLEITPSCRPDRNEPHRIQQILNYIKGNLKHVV

LasB [4] = target: T7, LasB (Pseudomonas aeruginosa, UniProt Q02RJ6); assay: biochemical; format: biochemical
T7 construct: made in house
T7 sequence (Q02RJ6 198-498): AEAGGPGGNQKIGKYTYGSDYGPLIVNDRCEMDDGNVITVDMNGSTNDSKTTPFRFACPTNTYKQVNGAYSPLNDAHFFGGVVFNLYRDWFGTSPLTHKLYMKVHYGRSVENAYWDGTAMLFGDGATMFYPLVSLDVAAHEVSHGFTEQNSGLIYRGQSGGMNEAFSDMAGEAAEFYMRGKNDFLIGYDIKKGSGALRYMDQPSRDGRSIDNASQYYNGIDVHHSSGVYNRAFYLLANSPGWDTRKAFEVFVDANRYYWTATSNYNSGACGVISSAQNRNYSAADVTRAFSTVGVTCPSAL

[5] = Metabolic stability in human liver S9 fraction; format: in vitro ADME
Calu-3 permeability = format: in vitro ADME; conditions: human
zebrafish embryos = assay: Zebrafish embryo toxicity
Method: Zebrafish embryo toxicity. The experiment was performed according to a procedure described
in the literature55 with minor modifications using zebrafish embryos of the AB wild-type line at 1
day post fertilization (dpf).

[6] = Microsomal stability, mouse liver microsomes; format: in vitro ADME; conditions: C57BL6, mouse, pooled liver microsomes
[7] = Plasma stability, minipig; format: in vitro ADME; conditions: Göttingen, pooled plasma, species profiling, read-out: Plasma T1/2 Minipig (Göttingen)
[8] = system: A549 cells treated with P. aeruginosa PAO1 and PA14 supernatants; assay: A549 cells challenged with P. aeruginosa culture supernatants; conditions: PAO1 or PA14 csn
Method: Cells were maintained according to standard cell
PA14 csn production. The csn of wt PA14 and ΔlasB PA14 was produced as we previously
Validation of the effect of LasB inhibitors on A549 cells in vitro. The experiment was performed
as described previously.32 The Picrosirius red assay was performed by washing the csn-challenged
cells (± inhibitor) 3x with PBS followed by an incubation with Bouin solution (Sigma) at RT for
20 min. The cells were incubated with 0.1% Picrosirius red dye (ab150681) at RT for 2 h. Then,
they were washed once with 0.01 N HCl, and the matrix was dissolved in 0.01 N NaOH. The
absorption was measured at 570 nm using a PHERAstar plate reader (BMG Labtech). By dividing
the absorbance of each sample by the absorbance of the healthy sample, the relative collagen
quantity was determined. For each condition, the experiment was performed three times. To
determine the rescue of A549 cells treated with 5% wt PA14 csn using our compounds, the LasB
inhibitors were used at 2, 0.5, 0.1 and 0.05 µM. The compounds were incubated in F12K medium,
Cell detachment was then evaluated, and a Trypan Blue cell
cells/well were seeded into a flat bottom 96-well plate (Corning™ Costar™) and incubated at 37
were tested against 10% (v/v) P. aeruginosa PAO1 csn diluted in DMEM starting from 10 µM
and 20 µM, respectively. Compound was initially dissolved in DMSO, and a low final assay
concentration of 0.5% (v/v) was applied to minimize the proteolytic effect of DMSO on the
bacterial culture supernatant. In addition, cells were challenged with 10% (v/v) of ΔlasB PAO1 to

Plasma stability, rat = format: in vitro ADME; conditions: Wistar, pooled plasma, species profiling, read-out: Plasma T1/2 Rat (Wistar)
ColH-PD = ColH-PD (Hathewaya histolytica, UniProt Q46085); assay: biochemical; format: biochemical, Clostridium histolyticum; conditions: read-out: % inhibition ColH-PD @1 µM
ColH-PD, sequence (Q46085 331-721 limits assumed): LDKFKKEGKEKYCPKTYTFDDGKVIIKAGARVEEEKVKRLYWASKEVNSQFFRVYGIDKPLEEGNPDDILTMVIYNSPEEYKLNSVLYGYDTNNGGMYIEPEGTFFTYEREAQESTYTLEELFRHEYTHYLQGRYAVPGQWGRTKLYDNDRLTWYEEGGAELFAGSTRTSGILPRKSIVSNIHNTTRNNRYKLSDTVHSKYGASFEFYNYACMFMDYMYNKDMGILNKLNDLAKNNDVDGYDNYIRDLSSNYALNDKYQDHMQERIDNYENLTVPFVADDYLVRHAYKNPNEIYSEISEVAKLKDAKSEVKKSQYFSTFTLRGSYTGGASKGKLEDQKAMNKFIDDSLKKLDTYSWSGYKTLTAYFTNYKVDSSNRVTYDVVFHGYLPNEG

3D lung organoids = assay: Lung organoid assay; format: cell-based, human
[9] = Microsomal stability, minipig liver microsomes; format: in vitro ADME; conditions: Göttingen, pooled liver microsomes
TACE = target: T8, TACE (Homo sapiens, UniProt P78536); assay: TACE inhibitor screening kit; format: biochemical; conditions: 100 μM; read-out: % inhibition TACE
T8 construct: purchased Sigma-Aldrich (Saint Louis, MO)
T8 sequence (P78536 215-824): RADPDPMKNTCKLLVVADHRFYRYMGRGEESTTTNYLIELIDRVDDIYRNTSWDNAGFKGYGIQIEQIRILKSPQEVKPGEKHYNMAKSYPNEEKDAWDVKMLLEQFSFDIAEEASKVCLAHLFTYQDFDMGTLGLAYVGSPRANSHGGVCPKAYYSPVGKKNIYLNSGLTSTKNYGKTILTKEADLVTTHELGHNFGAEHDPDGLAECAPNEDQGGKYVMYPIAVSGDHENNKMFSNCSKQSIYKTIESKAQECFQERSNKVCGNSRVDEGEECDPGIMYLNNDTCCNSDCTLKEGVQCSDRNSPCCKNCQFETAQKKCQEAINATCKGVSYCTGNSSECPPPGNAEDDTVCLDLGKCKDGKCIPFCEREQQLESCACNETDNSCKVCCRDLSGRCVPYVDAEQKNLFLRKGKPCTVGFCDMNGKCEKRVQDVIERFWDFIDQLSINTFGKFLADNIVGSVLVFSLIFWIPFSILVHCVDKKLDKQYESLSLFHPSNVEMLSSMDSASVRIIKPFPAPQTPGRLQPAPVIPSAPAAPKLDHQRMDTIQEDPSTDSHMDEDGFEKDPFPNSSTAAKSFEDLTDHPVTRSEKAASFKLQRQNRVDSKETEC

P. aeruginosa PA14 = assay: Bacterial growth inhibition assay; format: cell-based, Pseudomonas aeruginosa; conditions: Pseudomonas aeruginosa, PA14; 100 µM compound concentration; read-out: Percent (%) growth inhibition of P. aeruginosa PA14
Method: Bacterial growth inhibition assay. Assays regarding the determination of the MIC were
performed as described recently for P. aeruginosa PA14.58

[10] = Microsomal stability, rat liver microsomes; format: in vitro ADME; conditions: Wistar, pooled liver microsomes
[11] = system: Eurofins SafetyScreen44 panel; assay: Off-target SafetyScreen44 panel; conditions: 10 μM
Text: Then, we assessed potential additional safety liabilities of 4a and 4b using the Eurofins SafetyScreen44 panel to identify the most important off-target interactions at an early stage. […] Furthermore, to gain a deeper insight into the potential clinical applicability, we investigated the toxicity of compounds in vivo on zebrafish embryos.
Off-Target Safety Screen44TM Panel.
Eurofins Cerep, according to their guidelines.
their Standard Operating Procedures.
Zebrafish embryo toxicity.

LasB [12] = format: in vivo, mouse; conditions: compared to the vehicle group; 4b 10 mg/kg TID, levofloxacin 25 mg/kg
P. aeruginosa DSM-1117 = assay: Neutropenic lung infection model (PD study); conditions: neutropenic mice, 24 h; 4b 10 mg/kg TID nebulized, levofloxacin 25 mg/kg IP
Method: For the therapeutic neutropenic
pneumonia model, female CD-1 mice, 8-weeks-old, (Charles River, Germany) were rendered
neutropenic by administration of 150 mg/kg and 100 mg/kg cyclophosphamide i.p. on day –4 and
–1, respectively. The inoculum was prepared as follows: on day -1 the P. aeruginosa strain DSM-
single colony was inoculated into LB medium (diluted 1:6 in water) containing 0.01% mucin and
incubated at 120 rpm and 37 °C.
washed twice in 0.9 % NaCl-solution. Then they were adjusted to an OD of 10. For infection with
P. aeruginosa an inoculum of 1.2x10^9 cfu/mL was used. At d0 mice were infected by nebulization
using an Aeroneb® nebulizer (Kent Scientific) of 20 µL 1.2x10^9 CFU/ml P. aeruginosa DSM-
To control bacterial burden after nebulization, two animals were used as inoculum control
group. The following groups were used: (1) vehicle control group, (2) levofloxacin group wit h
mg/kg inhaled TID (t= 2, 6 and 10 h) combined with levofloxacin at 25 mg/kg IP QD (t= 2 h p.i.).
After isolation of blood, lung was
removed, weighed, and homogenized in 3 mL 0.9% NaCl. For de termination of CFUs, suspensions
of homogenized organs were serially diluted, plated on agar plates and incubated overnight at 37
°C. CFUs were determined by manual counting.

[13] = FRET-based assay, read-out: LasB IC50

Q: What does the source list for Cc1ccc(NC(=O)C(CC(C)C)C(=O)NO)cc1 (stereo not shown) [Compound 3g]?
A: inhibition at 100 µM (MMP-2): 26 ± 2%; inhibition at 100 µM (COX-1): < 10%; half-life at 1 μM (Plasma stability, mouse): > 2.5 h; inhibition at 100 µM (MMP-3): 16 ± 7%; % growth inhibition HepG2 (HepG2): 26 ± 11%; inhibition at 100 µM (HDAC-3): < 10%; logD7.4 ([1]; pH 7.4, chromatographic): 1.81; chromatographic logD [1]: > 1.8; microsomal CLint at 1 μM [2]: 64 ± 10 µL/min/mg; inhibition at 100 µM (MMP-1): 29 ± 3%; % growth inhibition HEK293 (HEK293): 12 ± 6%; detection in ELF and lung tissue [3]: not detected; inhibition at 100 µM (HDAC-8): < 10%; fold more potent compared to the best phosphonate inhibitor (LasB [4]): 2 fold; fold improvement of LasB activity compared to thiol hit 1 (LasB [4]; vs 1): 30 fold; microsomal CLint at 1 μM [5]: < 5.8 µL/min/mg; Papp at 300 min (Calu-3 permeability): 9.8 ± 2.6 ×10⁻⁶ cm/s

Q: Which Survival rate (zebrafish embryos; 12.5 µM) does the source give for Cc1ccc(NC(=O)C(CC(C)C)P(=O)(O)O)cc1 (stereo not shown) [Compound 4a] here?
A: 100%

Q: What about the Screening observations (zebrafish embryos; 12.5 µM, 3 dpf) of the same compound?
A: 1 edema

Q: What about the Screening observations (zebrafish embryos; 12.5 µM, 4 dpf) of the same compound?
A: 1 edema

Q: What about the Screening observations (zebrafish embryos; 12.5 µM, 5 dpf) of the same compound?
A: 1 nsb, 1 edema

Q: And the Survival rate (zebrafish embryos; 25 µM)?
A: 100%

Q: What about the Survival rate (zebrafish embryos; 50 µM) of the same compound?
A: 100%

Q: What about the Screening observations (zebrafish embryos; 50 µM, 3 dpf) of the same compound?
A: 1 edema

Q: And the Screening observations (zebrafish embryos; 50 µM, 4 dpf)?
A: 1 edema

Q: And the Screening observations (zebrafish embryos; 50 µM, 5 dpf)?
A: 1 nsb, 1 edema

Q: And the Survival rate (zebrafish embryos; 100 μM)?
A: 100%

Q: And the Screening observations (zebrafish embryos; 100 µM, 5 dpf)?
A: 3 nsb

Q: And the “maximum tolerated concentration (MTC)” value (zebrafish embryos; zebrafish embryos)?
A: ≥ 100 µM

Q: What about the inhibition at 100 µM (COX-1) of the same compound?
A: < 10%

Q: What about the half-life (Plasma stability, mouse) of the same compound?
A: > 4 h

Q: What about the half-life at 1 μM (Plasma stability, mouse) of the same compound?
A: > 2.5 h

Q: And the microsomal CLint [6]?
A: < 11.6 µL/min/mg

Q: What about the half-life [7] of the same compound?
A: > 4 h

Q: What about the “LasB-related cytotoxicity in csn-treated A549 cells” value [8] of the same compound?
A: dose-dependent reduction of LasB-related cytotoxicity

Q: What about the half-life (Plasma stability, rat) of the same compound?
A: > 4 h

Q: What about the inhibition at 1 µM (ColH-PD) of the same compound?
A: < 10%

Q: And the “viability of lung organoids challenged with 5% PA14 csn” value (3D lung organoids; 5% PA14 csn, 48 h, MTT)?
A: improved in a dose-dependent manner

Q: What about the “toxic effects on nontreated lung organoids” value (3D lung organoids; concentrations tested up to 100 μM) of the same compound?
A: did not have significant toxic effects

Q: What about the microsomal CLint [9] of the same compound?
A: < 11.6 µL/min/mg

Q: What about the inhibition at 100 µM (TACE) of the same compound?
A: < 10%

Q: And the inhibition at 100 µM (HDAC-3)?
A: < 10%

Q: And the microsomal CLint at 1 μM [2]?
A: < 5.8 µL/min/mg

Q: What about the inhibition at 100 µM (P. aeruginosa PA14) of the same compound?
A: < 10%

Q: What about the microsomal CLint [10] of the same compound?
A: < 11.6 µL/min/mg

Q: What about the “inhibition of SafetyScreen44 targets” value [11] of the same compound?
A: no significant inhibition

Q: What about the inhibition at 100 µM (HDAC-8) of the same compound?
A: < 10%

Q: What about the IC50 (LasB [4]; [13]) of the same compound?
A: 51.2 ± 6.7 nM

Q: What about the IC50 (LasB [4]; LasB IC50 in presence of 1% pulmonary surfactant, 1% pulmonary surfactant) of the same compound?
A: 123 ± 56 nM

Q: What about the microsomal CLint at 1 μM [5] of the same compound?
A: < 5.8 µL/min/mg

Q: With CC(C)CC(C(=O)Nc1ccc(F)cc1)P(=O)(O)O (stereo not shown) [Compound 4h] as the compound, how does the half-life (Plasma stability, mouse) read?
A: > 4 h

Q: What about the half-life at 1 μM (Plasma stability, mouse) of the same compound?
A: > 2.5 h

Q: What about the microsomal CLint [6] of the same compound?
A: < 11.6 µL/min/mg

Q: What about the half-life [7] of the same compound?
A: > 4 h

Q: What about the half-life (Plasma stability, rat) of the same compound?
A: > 4 h

Q: And the microsomal CLint [9]?
A: < 11.6 µL/min/mg

Q: And the chromatographic logD [1]?
A: -0.79

Q: And the microsomal CLint at 1 μM [2]?
A: < 5.8 µL/min/mg

Q: And the microsomal CLint [10]?
A: < 11.6 µL/min/mg

Q: What about the IC50 (LasB [4]; [13]) of the same compound?
A: 92.7 ± 21.6 nM

Q: What about the “fold less active than chlorine and bromine compounds” value (LasB [4]; vs 4i and 4j) of the same compound?
A: 2 fold

Q: What about the microsomal CLint at 1 μM [5] of the same compound?
A: < 5.8 µL/min/mg

Q: What does the source list for C[C@H]1COc2c(N3CCN(C)CC3)c(F)cc3c(=O)c(C(=O)O)cn1c23 [levofloxacin, reference compound]?
A: LasB protein levels in blood (LasB [12]): clear reduction; effect on bacterial burden (CFU) in lung (P. aeruginosa DSM-1117): reduced the bacterial burden back to stasis
